{"source": "paper PMC12750222", "about": "“Cytosporone B Affects ATP Production of Trypanosoma cruzi: A Lethal Action Investigation” (ACS Omega, 2025)", "key": {"[1]": {"system": "T. cruzi trypomastigotes (Y strain)", "assay": "Antitrypomastigote assay (resazurin)", "type": "cell-based, Trypanosoma cruzi", "conditions": "24 h + 24 h resazurin, tested up to 150 μM, NA = no activity, read-out: IC50 (μM) ± SD Trypomastigote", "protocol": "(§1) Murine conjunctive cells (NCTC clone 929, ATCC) and rhesus monkey kidney cells (LLC-MK2, ATCC CCL 7) were maintained in RPMI-1640 supplemented with 10% fetal bovine serum (FBS) at 37 °C in 5% CO2 humidified incubator. Peritoneal macrophages were collected by washing the peritoneal cavity of BALB/c mice with RPMI-1640 medium (Sigma-Aldrich) supplemented with 10% FBS, and were maintained at 37 °C in a 5% CO2 humidified incubator. T. cruzi trypomastigotes (Y strain) were cultivated by continuous in vitro passage in LLC-MK2, in RPMI-1640 supplemented with 2% FBS at 37 °C in 5% CO2 humidified incubator. Antitrypomastigote activity was evaluated in vitro using trypomastigotes obtained from infected LLC-MK2 cell cultures. The motile trypomastigotes, spontaneously released into the supernatant, were collected by centrifugation (2100g for 10 min), washed three times with cold PBS to remove cell debris and culture medium, and finally resuspended in fresh RPMI-1640 medium.\nAntitrypomastigote activity was evaluated in vitro using trypomastigotes obtained from infected LLC-MK2 cell cultures. Briefly, […] (1 × 10^6 cells/well) were incubated with increasing concentrations of the test compounds (up to 150 μM) in RPMI-1640 medium supplemented with 10% fetal bovine serum, at 37 °C in a humidified atmosphere containing 5% CO2 for 24 h. After incubation, resazurin sodium salt (final concentration 44 μM) was added to each well, and the plates were further incubated for an additional 24 h under the same conditions. Resazurin is a redox-sensitive dye that is reduced by metabolically active parasites to the fluorescent compound resorufin, allowing the quantification of viable parasites.\nThe conversion of resazurin to resorufin was measured spectrophotometrically by reading the absorbance at 570 nm. The percentage of parasite viability was calculated relative to untreated controls. Benznidazole was used as a standard drug, and wells containing only medium served as negative controls."}, "[2]": {"system": "fibroblast cells (NCTC clone 929)", "assay": "Cytotoxic assay (MTT)", "type": "cell-based, Murine", "conditions": "NCTC clone 929 cells, 48 h, highest tested concentration 200 μM", "protocol": "as §1\n(§2) Cytotoxicity was evaluated in vitro using fibroblast cells (NCTC clone 929) seeded in a 96-well plate (6 × 10^4/well). The compounds were diluted in DMSO (30 mM) and diluted in RPMI-1640 medium without phenol red compounds using serial dilution from 1.56 to–200 μM. The compounds were incubated with the cells for 48 h at 37 °C in 5% CO2 humidified incubator. The MTT assay was used for viability determination. After the final incubation period, 20 μL of MTT (5 mg/mL) was added for 4 h and the plate was kept at 37 °C in 5% CO2 humidified incubator. To solubilize the formazan, 80 μL of SDS (10% v/v) was added and the microplate was incubated for 24 h at 25 °C. The microplate was read at 570 nm in a plate spectrophotometer (Varioskan, Thermo, USA)."}, "[3]": {"system": "T. cruzi intracellular amastigotes", "assay": "Antiamastigote assay in infected peritoneal macrophages (Giemsa, infection index)", "type": "cell-based, Trypanosoma cruzi", "conditions": "for IC50: intracellular amastigotes in BALB/c peritoneal macrophages, 48 h, tested up to 60 μM, NA = no activity, read-out: IC50 (μM) ± SD Amastigote; for SI (selectivity index): ratio between CC50 in NCTC cells and IC50 in intracellular amastigotes", "protocol": "as §1\nMacrophages were seeded in 16-well chamber slides (NUNC Thermo Fisher Scientific, USA) and after 24 h infected with trypomastigotes (1:5, host cell/parasite ratio) for 2 h. Subsequently, infected cells were incubated with increasing concentrations of the compounds (up to 60 μM) for 48 h at 37 °C in 5% CO2 humidified incubator. After treatment, the cells were fixed and stained with Giemsa, and the slides were analyzed under a digital light microscope (EVOS M500, Thermo Fisher Scientific, USA). The infection index was determined by counting 200 macrophages and calculating the percentage of infected cells multiplied by the average number of amastigotes per infected macrophage. Benznidazole was used as a standard reference drug."}, "plants": {"system": "plants", "design": "method as in literature", "conditions": "ref literature; cited from earlier work"}, "Staphylococcus aureus": {"system": "Staphylococcus aureus", "design": "method as in literature", "conditions": "ref literature; cited from earlier work"}, "Enterococcus faecalis": {"system": "Enterococcus faecalis", "design": "method as in literature", "conditions": "ref literature; cited from earlier work"}, "Escherichia coli": {"system": "Escherichia coli", "design": "method as in literature", "conditions": "ref literature; cited from earlier work"}, "Candida albicans": {"system": "Candida albicans", "design": "method as in literature", "conditions": "ref literature; cited from earlier work"}, "Cytotoxic assay (MTT)": {"assay": "Cytotoxic assay (MTT)", "type": "cell-based, Murine", "conditions": "mouse, NCTC clone 929 fibroblast cells, NCTC clone 929 cells, highest tested concentration 200 μM", "protocol": "as §1, §2"}, "T. cruzi trypomastigotes [4]": {"system": "T. cruzi trypomastigotes", "assay": "Mitochondrial membrane electric potential (JC-1, flow cytometry)", "type": "cell-based, Trypanosoma cruzi", "conditions": "55 μM, 1 and 2 h, JC-1, ratio BL2/BL1", "protocol": "Mitochondrial membrane potential (ΔΨm) was evaluated using the JC-1 fluorescent probe, which accumulates in mitochondria in a potential-dependent manner, forming red-fluorescent aggregates in healthy cells with high ΔΨm and remaining as green-fluorescent monomers in cells with depolarized mitochondrial membranes. Trypomastigotes (2 × 10^6/well) were incubated with Csn-B (6) (55 μM) for 1 and 2 h, at 37 °C in HBSS + Glu. Carbonyl cyanide m-chlorophenyl hydrazone (CCCP) 100 μM was used as a positive control. After this period, parasites were washed in HBSS + Glu and resuspended with JC-1 dye (10 μM) in the dark for 10 min at 37 °C. Parasites were analyzed by flow cytometry (Attune NxT Flow Cytometer; Thermo Fisher Scientific, USA). ,\n(§3) 3 Evaluation of mitochondrial membrane electric potential (ΔΨm) and ATP levels. T. cruzi trypomastigotes were incubated for 1 or 2 h with Cytosporone B (6) (55 μM). (A) ΔΨm was investigated with JC-1 dye by flow cytometry and reported as the ratio between the emission channels BL2/BL1. (B) ATP concentration was measured by luciferin/luciferase luminescent kit in a plate reader luminometer. In both analyses, untreated and treated […] with CCCP were used to achieve minimal and maximal depolarization, respectively. A representative experiment is shown. ***p < 0.005 and **p < 0.05."}, "T. cruzi trypomastigotes [5]": {"system": "T. cruzi trypomastigotes", "assay": "ATP levels (luciferin/luciferase)", "type": "cell-based, Trypanosoma cruzi", "conditions": "55 μM, 1 and 2 h", "protocol": "Intracellular ATP levels were measured using the ATP Determination Kit (Molecular Probes, Thermo Fisher Scientific, USA), based on the luciferin–luciferase bioluminescence reaction, in which the emitted light intensity is directly proportional to the ATP concentration present in the sample. Trypomastigotes (2 × 10^6/well) were treated with Csn-B (6) (55 μM) for 1 and 2 h. Carbonyl cyanide m-chlorophenyl hydrazone (CCCP) 100 μM was used as a positive control. After treatment, trypomastigotes were lysed using HBSS + Glu with 0.5% Triton X-100 and mixed with a standard reaction buffer (ATP Determination kit, Molecular Probes, USA) containing DTT (1 mM), luciferin (0.5 mM), and firefly luciferase (1.25 μg/mL). ,\nas §3"}, "bacteria": {"system": "bacteria", "design": "method as in literature", "conditions": "ref literature; cited from earlier work"}, "Nur77": {"system": "Nur77", "design": "method as in PMID 18690216", "conditions": "cited from earlier work"}, "T. cruzi": {"system": "T. cruzi", "design": "method as in literature", "conditions": "T. cruzi treated with benznidazole; ref literature; cited from earlier work"}, "[6]": {"system": "human lung fibroblast MRC-5 cells", "design": "method as in PMID 29660469", "conditions": "cited from earlier work"}, "[7]": {"conditions": "Trypanosoma cruzi, Peritoneal macrophage, in Mus musculus"}}, "note": "Entries after “also recorded” stand apart in the source; their conditions may differ. Like-named read-outs stand apart in the source and are kept apart here.", "data": [{"compound": "C=C1[C@@H](C)[C@H]2[C@H](Cc3ccccc3)NC(=O)[C@]23[C@H](OC(C)=O)/C=C/[C@](C)(O)C[C@@H](C)C/C=C/[C@H]3[C@@H]1O", "note": "[Compound 7, Cytochalasin H]", "values": [{"measurement": "IC50", "setting": "[1]", "value": "47.9 ± 6.3", "unit": "µM"}, {"measurement": "CC50", "setting": "[2]", "value": "> 200", "unit": "µM"}]}, {"compound": "CCCCCCCC(=O)c1c(O)cc(O)cc1CC(=O)O", "note": "[Compound 5, Cytosporone A]", "values": [{"measurement": "IC50", "setting": "[3]", "value": "29.9 ± 0.5", "unit": "µM"}, {"measurement": "CC50", "setting": "[2]", "value": "> 200", "unit": "µM"}, {"measurement": "inhibition for germination and growth of plants", "setting": "plants", "value": "inhibition"}, {"measurement": "antimicrobial activity", "setting": "Staphylococcus aureus", "value": "antimicrobial activity"}, {"measurement": "antimicrobial activity", "setting": "Enterococcus faecalis", "value": "antimicrobial activity"}, {"measurement": "antimicrobial activity", "setting": "Escherichia coli", "value": "antimicrobial activity"}, {"measurement": "antimicrobial activity", "setting": "Candida albicans", "value": "antimicrobial activity"}]}, {"compound": "CCCCCCCC(=O)c1c(O)cc(O)cc1CC(=O)OCC", "note": "[Compound 6, Cytosporone B]", "values": [{"measurement": "IC50", "setting": "[1]; Trypanosoma cruzi", "value": "36.5 ± 1.9", "unit": "µM"}, {"measurement": "IC50", "setting": "[3]; [7]", "value": "< 10", "unit": "µM"}, {"measurement": "IC50", "setting": "[3]", "value": "9.1 ± 3.2", "unit": "µM"}, {"measurement": "SI (selectivity index)", "setting": "[3]", "value": ">22.0"}, {"measurement": "CC50 at 48 h", "setting": "Cytotoxic assay (MTT)", "value": "> 200", "unit": "µM"}, {"measurement": "mitochondrial membrane electric potential (ΔΨm)", "setting": "T. cruzi trypomastigotes [4]", "value": "depolarization of the membrane"}, {"measurement": "mitochondrial membrane electric potential (ΔΨm)", "setting": "T. cruzi trypomastigotes [4]; listed as Csn-B", "value": "depolarization of the mitochondrial membrane potential; also recorded: significant depolarization"}, {"measurement": "ATP levels", "setting": "T. cruzi trypomastigotes [5]", "value": "ATP decrease"}, {"measurement": "ATP levels", "setting": "T. cruzi trypomastigotes [5]; listed as Csn-B", "value": "decrease in the ATP levels; also recorded: significant decrease in ATP levels; also recorded: significant reduction in intracellular ATP levels"}, {"measurement": "antibacterial activity", "setting": "bacteria", "value": "potent antibacterial activity"}, {"measurement": "antimicrobial activity", "setting": "Staphylococcus aureus", "value": "antimicrobial activity"}, {"measurement": "antimicrobial activity", "setting": "Enterococcus faecalis", "value": "antimicrobial activity"}, {"measurement": "antimicrobial activity", "setting": "Escherichia coli", "value": "antimicrobial activity"}, {"measurement": "antimicrobial activity", "setting": "Candida albicans", "value": "antimicrobial activity"}, {"measurement": "action on Nur77 nuclear receptor", "setting": "Nur77", "value": "agonist"}]}, {"compound": "O=C(Cn1ccnc1[N+](=O)[O-])NCc1ccccc1", "note": "[Benznidazole, reference compound]", "values": [{"measurement": "IC50", "setting": "[1]; Trypanosoma cruzi", "value": "17.7 ± 1.9", "unit": "µM"}, {"measurement": "IC50", "setting": "[3]; [7]", "value": "5 ± 1.5", "unit": "µM"}, {"measurement": "SI (selectivity index)", "setting": "[3]", "value": 38.1}, {"measurement": "CC50 at 48 h", "setting": "Cytotoxic assay (MTT)", "value": "191 ± 13.4", "unit": "µM"}, {"measurement": "mitochondrial membrane potential", "setting": "T. cruzi", "value": "depolarization"}, {"measurement": "respiratory chain", "setting": "T. cruzi", "value": "respiratory chain inhibition"}]}, {"compound": "Dothiorelone A [Compound 1]", "values": [{"measurement": "CC50", "setting": "[2]", "value": "> 200", "unit": "µM"}]}, {"compound": "Dothiorelone B [Compound 2]", "values": [{"measurement": "CC50", "setting": "[2]", "value": "> 200", "unit": "µM"}]}, {"compound": "COC(=O)Cc1cc(O)cc(O)c1C(=O)CCCCCC(C)=O", "note": "[Compound 3, Dothiorelone P]", "values": [{"measurement": "CC50", "setting": "[2]", "value": "> 200", "unit": "µM"}]}, {"compound": "Dothiorelone Q [Compound 4]", "values": [{"measurement": "IC50", "setting": "[3]", "value": "43 ± 9", "unit": "µM"}, {"measurement": "CC50", "setting": "[2]", "value": "> 200", "unit": "µM"}, {"measurement": "inhibition of TFG-β induced activation of MRC-5 cells", "setting": "[6]", "value": "inhibition"}]}]}
